Values of other authors in patent US20040265230A1, “Compositions and methods for diagnosing and treating colon cancers” (priority 2003, published 2004).

Experiments:
[1] = tested on: tumor cells; details: read-out: concentration causing 50% growth inhibition of tumor cells
[2] = tested on: lymphoid, myeloid, colon, and prostate cancer cells; details: prostate xenografts in nude mice

- IC50 [1]: 60 nM
Structure (SMILES): CN1CC[C@H](c2c(O)cc(O)c3c(=O)cc(-c4ccccc4Cl)oc23)[C@H](O)C1 [Flavopiridol]
- inhibition of cancer cells grown in vivo as tumor xenografts [2]: inhibits
